*1 amine or outer side, *2 acyl side, *3 side chain or, on linkers, in order; H or OH if unused. Where a SMILES comes first, the peptide text is derived from it. Bridges are numbered along the chain shown (N, C = ends). [ ]: non-standard residue; d: D form. The star is where a group is joined. ξ: configuration not given here. hPhe(3-OMe,4-CONHMe) = CNC(=O)c1ccc(CC[C@H](N)C(=O)O)cc1OC; X5 = O=C([C@H](CCC[C@@H]1CC(F)(F)CN1)N[*:1])[*:2]; CH2(1,2,4-oxadiazolon-3-yl) = O=c1[nH]c(C*)no1; NMePhe(3-Cl) = CN[C@@H](Cc1cccc(Cl)c1)C(=O)O; X13 = O=C(C1CCCCC1)[C@H](CC(=O)[*:2])N[*:1]; Pro(4,4-F2)ψ(CH2) = FC1(F)CN[C@H](C*)C1; Propyl(2,2-Me2,3-OH) = CC(C)(CO)C*; NMeF = CN[C@@H](Cc1ccccc1)C(=O)O; NMeGABA = CN(CCCC(=O)[*:2])[*:1]; NMeI = CC[C@H](C)[C@H](NC)C(=O)O; CH2CH(OH)CF3 = OC(C*)C(F)(F)F; NMeL = CN[C@@H](CC(C)C)C(=O)O; dNMeL = CN[C@H](CC(C)C)C(=O)O; NMeAbu = CC[C@H](NC)C(=O)O; NMeA = CN[C@@H](C)C(=O)O; Piperidide = C1CCN(*)CC1; NBuGly = CCCCNCC(=O)O; Propyl(3-OH) = OCCC*; ξS = NC(CO)C(=O)O; Sar = CNCC(=O)O; tBu = CC(C)(C)*
Assay: Membrane permeability test of cyclic peptides (Caco-2, modified/improved method of WO 2018/124162)
Details: human
[1] = Caco-2, Caco-2 (cm/sec), membrane permeability of cyclic peptides, Caco-2
[2] = Caco-2, Caco-2 (membrane permeability), Table 10, cyclic peptides containing Ser(S-4-F2-Pyrro-Me) (G) or Nva(2-R-4-F2-Pyrro) (H)

| Compound | Papp [1] [×10⁻⁶ cm/s] | Papp [2] [×10⁻⁶ cm/s] | also measured |
| --- | --- | --- | --- |
| CC(C)C[C@@H]1NC(=O)[C@H](Cc2ccccc2)N(C)C(=O)[C@H](CC(C)C)N(C)C(=O)[C@H](COCCCO)NC(=O)[C@H](CC(C)C)N(C)C(=O)C[C@@H](C(=O)N2CCCCC2)NC(=O)[C@H](CC(C)C)N(C)C(=O)CN(C)C(=O)[C@H]([C@@H](C)O)NC(=O)[C@H](CC(C)C)N(C)C(=O)[C@H](Cc2cccc(Cl)c2)N(C)C1=O [AP97] ([NMeL]S(Propyl(3-OH))[NMeL][NMeF]L[NMePhe(3-Cl)][NMeL]T[Sar][NMeL]D-Piperidide; lactam N-11) | 0.21 | – | – |
| CCCCN1CC(=O)N(C)[C@@H](CC(C)C)C(=O)N[C@H](C(=O)N2CCCCC2)CC(=O)N(C)[C@@H](CC)C(=O)N[C@@H](CC(C)C)C(=O)N(C)[C@@H](CC(C)C)C(=O)N(C)[C@@H](Cc2ccccc2)C(=O)N[C@@H](COC[C@@H]2CC(F)(F)CN2)C(=O)N(C)[C@@H](CC)C(=O)N(C)[C@@H](CC(C)C)C(=O)N[C@@H]([C@@H](C)O)C1=O [Compound G04] ([NMeAbu]L[NMeL][NMeF]S(Pro(4,4-F2)ψ(CH2))[NMeAbu][NMeL]T[NBuGly][NMeL]D-Piperidide; lactam N-11) | – | 1.8 | – |
| CC[C@H](C)[C@@H]1NC(=O)[C@H](CC(C)C)N(C)C(=O)CCCN(C)C(=O)C[C@@H](C(=O)N2CCCCC2)NC(=O)[C@H](CC(C)C)N(C)C(=O)[C@H](CC(C)C)N(C)C(=O)[C@H]([C@@H](C)O)NC(=O)[C@H](CC(C)C)N(C)C(=O)C(COCc2noc(=O)[nH]2)NC(=O)[C@H](CC(C)C)N(C)C(=O)[C@H](Cc2cccc(Cl)c2)N(C)C1=O (stereo partly drawn) [AP46] ([NMeGABA][NMeL]I[NMePhe(3-Cl)][NMeL][ξS](CH2(1,2,4-oxadiazolon-3-yl))[NMeL]T[NMeL][NMeL]D-Piperidide; lactam N-11) | 0.22 | – | – |
| CCCCN1CC(=O)N(C)[C@@H](CC(C)C)C(=O)N[C@@H](COC(C)(C)C)C(=O)N(C)[C@@H](Cc2ccccc2)C(=O)N(C)[C@@H](CC)C(=O)N[C@H](C(=O)N2CCCCC2)CC(=O)N[C@H](C)C(=O)N(C)[C@@H](CC)C(=O)N[C@@H](C(C)C)C(=O)N(C)[C@@H](CC(C)C)C(=O)N[C@@H](COC[C@@H]2CC(F)(F)CN2)C1=O [Compound G08] ([dA][NMeAbu]V[NMeL]S(Pro(4,4-F2)ψ(CH2))[NBuGly][NMeL]S(tBu)[NMeF][NMeAbu]D-Piperidide; lactam N-11) | – | 1.3 | – |
| CC(C)C[C@H]1C(=O)N[C@@H](COC(C)(C)C)C(=O)N(C)[C@@H](Cc2ccccc2)C(=O)N(C)[C@@H](CC(C)C)C(=O)N[C@H](C(=O)C2CCCCC2)CC(=O)N[C@H](C(C)C)C(=O)N(C)[C@@H](Cc2ccccc2)C(=O)N[C@@H](COCC(O)C(F)(F)F)C(=O)N(C)[C@@H](CC(C)C)C(=O)N[C@@H](C(C)C)C(=O)N(C)CC(=O)N1C (some centres unmarked) [Compound D11] (cyclo([NMeF][NMeL][X13][dV][NMeF]S(CH2CH(OH)CF3)[NMeL]V[Sar][NMeL]S(tBu))) | – | – | Papp (Caco-2, Caco-2 (membrane permeability), Table 6, cyclic peptides containing Ser(1-CF3-EtOH) (C) or Hnl(7-F3-6-OH) (D)): 0.21 ×10⁻⁶ cm/s |
| CC[C@H](C)[C@H]1C(=O)N[C@@H](CCc2ccc(C(=O)NC)c(OC)c2)C(=O)N[C@H](C(=O)N2CCCCC2)CC(=O)N(C)[C@H](CC(C)C)C(=O)N[C@@H](COC(C)(C)C)C(=O)N(C)[C@@H](CC(C)C)C(=O)N[C@@H]([C@@H](C)O)C(=O)N(C)[C@@H](Cc2ccccc2)C(=O)N(C)[C@@H](CC(C)C)C(=O)NCC(=O)N1C [AP264] ([dNMeL]S(tBu)[NMeL]T[NMeF][NMeL]G[NMeI][hPhe(3-OMe,4-CONHMe)]D-Piperidide; lactam N-10) | – | – | Papp (Caco-2, Caco-2 (cm/sec), membrane permeability, Caco-2): 0.17 ×10⁻⁶ cm/s |
| CCCCN1CC(=O)N(C)[C@@H](Cc2ccccc2)C(=O)N(C)[C@@H](CC(C)C)C(=O)N[C@@H](CC(C)C)C(=O)N(C)[C@@H](CC(C)C)C(=O)N[C@H](C(=O)N2CCCCC2)CC(=O)N(C)CC(=O)N(C)[C@@H](C)C(=O)N[C@@H](C(C)C)C(=O)N(C)[C@@H](CC)C(=O)N[C@@H](CCC[C@@H]2CC(F)(F)CN2)C1=O [Compound H11] ([Sar][NMeA]V[NMeAbu][X5][NBuGly][NMeF][NMeL]L[NMeL]D-Piperidide; lactam N-11) | – | 2 | – |
| CC(C)C[C@@H]1NC(=O)[C@H](Cc2ccccc2)N(C)C(=O)[C@H](CC(C)C)N(C)C(=O)[C@H](COCC(C)(C)CO)NC(=O)[C@H](CC(C)C)N(C)C(=O)C[C@@H](C(=O)N2CCCCC2)NC(=O)[C@H](CC(C)C)N(C)C(=O)CN(C)C(=O)[C@H]([C@@H](C)O)NC(=O)[C@H](CC(C)C)N(C)C(=O)[C@H](Cc2ccccc2)N(C)C1=O [AP125] ([NMeL]S(Propyl(2,2-Me2,3-OH))[NMeL][NMeF]L[NMeF][NMeL]T[Sar][NMeL]D-Piperidide; lactam N-11) | 0.74 | – | – |
